Among the data in patent US20120004214A1 (priority 2009, published 2012) are IC50 values, retold here.

In the experiment the target is α7-subtype of nicotinic receptors (Rattus norvegicus, UniProt Q05941). Put plainly: biochemical. It is filed as binding.

In general, IC50 refers to the concentration at which inhibition is half-maximal. The low end stands for higher potency, the high end for lower potency.

A value given as a limit tells only on which side of the number the result lay.

α7-subtype of nicotinic receptors, sequence (Q05941 23-502): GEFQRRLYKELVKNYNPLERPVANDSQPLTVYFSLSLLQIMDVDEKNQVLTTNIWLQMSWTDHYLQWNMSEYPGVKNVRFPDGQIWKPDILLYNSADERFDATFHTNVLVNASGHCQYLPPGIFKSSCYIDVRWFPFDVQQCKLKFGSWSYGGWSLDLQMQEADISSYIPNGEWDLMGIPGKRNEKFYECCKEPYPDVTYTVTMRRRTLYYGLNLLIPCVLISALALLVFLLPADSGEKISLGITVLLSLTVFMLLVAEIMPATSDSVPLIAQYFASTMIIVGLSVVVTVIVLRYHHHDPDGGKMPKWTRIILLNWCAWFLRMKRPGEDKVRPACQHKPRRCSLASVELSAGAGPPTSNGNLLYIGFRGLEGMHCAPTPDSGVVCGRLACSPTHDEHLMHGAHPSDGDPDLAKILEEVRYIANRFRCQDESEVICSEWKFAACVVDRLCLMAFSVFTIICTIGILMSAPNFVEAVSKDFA

The compound `[O-][N+]12CCC(CC1)N(c1ncc(-c3ccc4[nH]ccc4c3)cn1)CC2` [Compound 1, 4-[5-(1H-Indol-5-yl)-pyrimidin-2-yl]-1,4-diaza-bicyclo[3.2.2]nonane 1-oxide] returned an IC50 of less than 40 nM.
